Measured values reported in ChEMBL document CHEMBL4602694, “Suppression of Drug-Resistant Non-Small-Cell Lung Cancer with Inhibitors Targeting Minichromosomal Maintenance Protein” (J Med Chem, 2020).
Calls of active or inactive are those of the source. The calls are words filed in the database; no cut-off is given here.

What was measured:
[1] = Toxicity in athymic nude BALB/c mouse xenografted with human NCI-H1975 cells assessed as effect on serum creatinine at 1 or 4 mg/kg, ip administered for 4 weeks; type: organism-based; conditions: in vivo, 672 h
[2] = molecular target: T1, DNA replication licensing factor MCM6 (Homo sapiens) (UniProt Q14566); test: Induction of ubiquitination of MCM6 in human NCI-H1975 cells in presence of MG132 incubated for 48 hrs followed by MG132 addition and measured after 12 hrs by immunoblot analysis (reference value: 1.8); type: cell-based
T1 sequence (whole entry): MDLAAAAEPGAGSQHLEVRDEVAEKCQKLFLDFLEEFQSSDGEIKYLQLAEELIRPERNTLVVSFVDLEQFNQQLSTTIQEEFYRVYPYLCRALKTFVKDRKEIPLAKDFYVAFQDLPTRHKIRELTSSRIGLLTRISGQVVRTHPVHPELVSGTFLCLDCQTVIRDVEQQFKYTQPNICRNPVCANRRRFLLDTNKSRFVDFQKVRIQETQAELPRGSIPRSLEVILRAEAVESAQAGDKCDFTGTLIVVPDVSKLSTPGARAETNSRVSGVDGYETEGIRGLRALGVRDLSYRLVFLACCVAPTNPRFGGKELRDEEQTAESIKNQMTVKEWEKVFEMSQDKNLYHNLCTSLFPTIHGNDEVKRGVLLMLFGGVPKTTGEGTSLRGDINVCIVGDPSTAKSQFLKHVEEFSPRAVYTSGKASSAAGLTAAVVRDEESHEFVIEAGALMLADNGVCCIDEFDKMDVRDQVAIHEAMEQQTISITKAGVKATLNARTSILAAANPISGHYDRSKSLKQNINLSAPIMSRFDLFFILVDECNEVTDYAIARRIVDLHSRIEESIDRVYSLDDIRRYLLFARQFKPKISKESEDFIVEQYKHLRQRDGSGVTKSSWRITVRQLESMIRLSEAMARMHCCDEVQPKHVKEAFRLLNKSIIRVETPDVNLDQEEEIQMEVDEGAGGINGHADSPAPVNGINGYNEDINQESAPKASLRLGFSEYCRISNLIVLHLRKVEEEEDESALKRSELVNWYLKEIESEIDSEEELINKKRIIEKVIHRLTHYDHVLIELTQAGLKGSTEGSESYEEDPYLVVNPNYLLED

[3] = Selectivity index, ratio of IC50 for human bronchial epithelial cells to IC50 for human PC9 cells; type: toxicity; conditions: human bronchial epithelial cells versus PC9 cells, read-out: Ratio IC50
[4] = molecular target: T2, DNA replication licensing factor MCM4 (Homo sapiens) (UniProt P33991); test: Induction of ubiquitination of MCM4 in human NCI-H1975 cells incubated for 48 hrs by immunoblot analysis (reference value: 1); type: cell-based
T2 sequence (whole entry): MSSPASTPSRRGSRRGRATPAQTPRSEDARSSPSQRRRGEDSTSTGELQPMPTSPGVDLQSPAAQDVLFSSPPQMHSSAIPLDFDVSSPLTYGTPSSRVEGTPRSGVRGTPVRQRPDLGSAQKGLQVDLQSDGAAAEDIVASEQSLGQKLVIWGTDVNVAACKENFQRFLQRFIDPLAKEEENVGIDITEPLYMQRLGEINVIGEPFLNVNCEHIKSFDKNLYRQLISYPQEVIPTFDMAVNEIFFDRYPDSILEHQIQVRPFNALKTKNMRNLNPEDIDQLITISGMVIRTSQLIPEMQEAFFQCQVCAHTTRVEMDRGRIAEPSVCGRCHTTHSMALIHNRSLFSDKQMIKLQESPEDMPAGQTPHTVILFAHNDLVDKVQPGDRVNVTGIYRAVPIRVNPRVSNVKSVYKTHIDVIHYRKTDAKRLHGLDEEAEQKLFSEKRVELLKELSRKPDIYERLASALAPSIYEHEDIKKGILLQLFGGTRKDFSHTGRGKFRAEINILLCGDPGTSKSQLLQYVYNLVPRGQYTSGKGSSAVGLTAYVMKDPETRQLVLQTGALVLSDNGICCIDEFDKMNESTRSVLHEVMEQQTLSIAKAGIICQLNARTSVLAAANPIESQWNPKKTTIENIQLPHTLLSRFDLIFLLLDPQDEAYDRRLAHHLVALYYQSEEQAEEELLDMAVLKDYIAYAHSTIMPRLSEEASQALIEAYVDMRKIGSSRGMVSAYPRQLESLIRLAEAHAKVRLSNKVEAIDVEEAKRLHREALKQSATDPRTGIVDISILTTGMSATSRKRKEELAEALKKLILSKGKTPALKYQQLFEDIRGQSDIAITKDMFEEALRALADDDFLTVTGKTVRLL

[5] = molecular target: T2, DNA replication licensing factor MCM4 (Homo sapiens); test: Induction of ubiquitination of MCM4 in human NCI-H1975 cells incubated for 72 hrs by immunoblot analysis (reference value: 1); type: cell-based
[6] = Antiproliferative activity against human CL1-5 cells assessed as reduction in cell viability incubated for 72 hrs by SRB assay; type: functional, cell-based; conditions: CL1-5, 72 h
[7] = molecular target: DNA replication licensing factor MCM2 (Homo sapiens) (UniProt P49736); test: Induction of ubiquitination of MCM2 in human PC9 cells incubated for 24 hrs by immunoblot analysis; type: cell-based; conditions: PC-9
DNA replication licensing factor MCM2 (Homo sapiens), sequence (P49736 whole entry): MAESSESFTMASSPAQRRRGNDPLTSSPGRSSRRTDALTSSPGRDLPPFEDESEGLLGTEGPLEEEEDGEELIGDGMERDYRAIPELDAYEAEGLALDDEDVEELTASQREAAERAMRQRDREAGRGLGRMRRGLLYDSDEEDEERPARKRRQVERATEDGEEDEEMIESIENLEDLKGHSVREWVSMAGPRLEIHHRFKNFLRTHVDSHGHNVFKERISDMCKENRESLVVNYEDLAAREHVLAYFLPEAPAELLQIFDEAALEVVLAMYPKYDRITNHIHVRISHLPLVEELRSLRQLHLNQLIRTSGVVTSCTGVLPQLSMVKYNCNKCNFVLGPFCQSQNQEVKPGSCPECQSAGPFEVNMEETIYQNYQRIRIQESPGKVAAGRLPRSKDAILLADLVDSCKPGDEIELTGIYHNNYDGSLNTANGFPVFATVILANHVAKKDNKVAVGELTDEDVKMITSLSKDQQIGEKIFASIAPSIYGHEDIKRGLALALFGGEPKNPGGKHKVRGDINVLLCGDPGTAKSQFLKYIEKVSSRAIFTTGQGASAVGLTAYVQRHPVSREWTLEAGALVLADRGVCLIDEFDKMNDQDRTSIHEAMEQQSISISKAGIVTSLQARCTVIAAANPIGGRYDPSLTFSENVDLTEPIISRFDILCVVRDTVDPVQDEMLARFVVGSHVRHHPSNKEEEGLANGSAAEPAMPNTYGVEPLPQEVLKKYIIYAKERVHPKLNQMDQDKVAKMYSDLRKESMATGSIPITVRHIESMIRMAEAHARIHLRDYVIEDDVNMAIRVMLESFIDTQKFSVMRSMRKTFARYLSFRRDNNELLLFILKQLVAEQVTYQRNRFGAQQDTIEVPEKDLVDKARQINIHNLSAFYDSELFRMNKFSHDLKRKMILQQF

[8] = molecular target: T1, DNA replication licensing factor MCM6 (Homo sapiens); test: Induction of ubiquitination of MCM6 in human NCI-H1975 cells incubated for 48 hrs by immunoblot analysis (reference value: 1); type: cell-based
[9] = test system: NCI-H1975; test: Antitumor activity against human NCI-H1975 cells xenografted in athymic nude BALB/c mouse assessed as delay in tumor growth at 1 or 4 mg/kg, ip administered for 4 weeks; type: functional, organism-based

Cc1oc2c(c1C(=O)NCCCn1ccnc1)C(=O)c1ccccc1C2=O
Activity [1]: Non-Toxic
Activity [2]: 0.5
selectivity ratio [3]: > 10
Activity [4]: 1.1
Activity [5]: 0.7
IC50 [6]: < 0.1 µM
Activity [7]: Active
Activity [8]: 0.4
Activity [9]: Active
